The record followed here is patent US20060041959A1, “Control of plant growth and developmental process” (Universiteit Leiden, priority 2003, published 2006).

Each structure is given as a SMILES string. Entries after “also recorded” stand apart in the source; their conditions may differ.

The test system of assay [1] is wild-type arabiodopsis seeds (ecotype Columbia). Description: Germination and growth of wild-type Arabidopsis seedlings on ½MS medium containing plant growth substance. It counts as in vivo. From the text:
(§1) It is thus likely that overexpression directly or indirectly leads to changes in the levels of plant growth substances. Plant cells affected in this manner can secrete regulatory signals affecting neighboring cells or tissues. It is thus shown herein that by using plant material overexpressing one or more members of the protein family described with the sequence identifiers mentioned, the development of other plant material (including non-transformed material) can be altered towards a more organogenic/embryogenic pathway.

In assay [2] the test system is mutant phenotypes caused by NM—115413.1/NM—106300.1 overexpression constructs. The assay can be described thus: Effect of plant growth substance on NM_115413.1/NM_106300.1 overexpressing mutant phenotypes. The settings on record: applied to overexpressing lines. Type of assay: in vivo, Arabidopsis.
Source text: as §1

For `CC(C)[C@@H](C)[C@@H](O)[C@H](O)[C@@H](C)[C@H]1CC[C@H]2[C@@H]3COC(=O)[C@H]4C[C@H](O)[C@H](O)C[C@]4(C)[C@H]3CC[C@]12C` [24-epibrassinolide], the “seedling growth phenotype after germination on medium containing the substance” value in assay [1] (4 μM in ½MS medium, 14 and 28 dag, controls 0.1% DMSO, FIG. 3) was “growth aberrations resembling those seen in NM—115413.1 or NM—106300.1 overexpressing seedlings can be observed”. Also, the “somatic embryogenesis in wild-type plants” value in assay [1] (wild-type plants, FIG. 3) is listed as “somatic embryogenesis was not observed”. For the same compound, the “ability to mimic the mutant phenotypes caused by overexpression constructs in wild-type plants” value in assay [1] (wild-type plants, compared with other plant growth substances investigated) is reported as “can mimic some of the effects of overexpression of the proteins of the invention; also recorded: most profound effect on wild-type plants”. For the same compound, the “effect on mutant (overexpression) phenotypes” value in assay [2] is reported as “able to make the mutant phenotypes more vigorous”.
